Values quoted from earlier work in patent US11576924B2, “Compounds for the prevention and treatment of diseases and the use thereof” (Galectin Sciences, LLC, priority 2017, dated 2023).

Assays:
lung fibrosis = settings: pulmonary administration (intra-tracheal instillation or nebulizers)
galectin 3 = galectin 3 (Homo sapiens, UniProt P17931)
galectin 3, sequence (P17931 whole entry, species assumed): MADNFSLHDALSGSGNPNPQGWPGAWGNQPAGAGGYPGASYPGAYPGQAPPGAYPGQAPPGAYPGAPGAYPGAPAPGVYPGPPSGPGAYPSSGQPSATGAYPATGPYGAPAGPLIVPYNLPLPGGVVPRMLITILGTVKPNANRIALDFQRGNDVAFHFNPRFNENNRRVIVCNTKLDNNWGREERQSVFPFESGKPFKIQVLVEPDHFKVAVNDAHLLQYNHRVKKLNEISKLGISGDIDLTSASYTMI

**Q.** For OC[C@H]1O[C@@H](S[C@@H]2O[C@H](CO)[C@H](O)[C@H](n3cc(-c4cccc(F)c4)nn3)[C@H]2O)[C@H](O)[C@@H](n2cc(-c3cccc(F)c3)nn2)[C@H]1O [TD-139], which “efficacy in mouse model of lung fibrosis” value (lung fibrosis) is on record?
**A.** Its value is “effective in a mouse model of lung fibrosis”.

**Q.** And the “binding to galectin 3” value (galectin 3)?
**A.** The value was “bind to galectin 3”.
